According to PubChem BioAssay (NCI):
Where “and” joins values, the source holds several entries; their conditions need not be identical. Equal values may be shown once.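 Cultured in 96-well plates, cells were exposed to test compound for 48 hours across five concentrations. GI50 = concentration required for 50% inhibition of growth. TGI denotes the concentration required for complete inhibition of growth.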

Legend:
Assay in all cases: NCI tumour cell line growth inhibition, 48 h
OVCAR-5 ovarian = system: OVCAR-5 ovarian
TK-10 renal = system: TK-10 renal
IGROV1 ovarian = system: IGROV1 ovarian
SK-MEL-2 melanoma = system: SK-MEL-2 melanoma
KM12 colon = system: KM12 colon
SR leukemia = system: SR leukemia
RXF 393 renal = system: RXF 393 renal
SN12C renal = system: SN12C renal
NCI-H522 lung = system: NCI-H522 lung
HOP-92 NSCLC = system: HOP-92 NSCLC

SMILES	GI50 (OVCAR-5 ovarian) [µM]	TGI (OVCAR-5 ovarian)	GI50 (TK-10 renal) [µM]	TGI (TK-10 renal)	GI50 (IGROV1 ovarian) [µM]	TGI (IGROV1 ovarian)	GI50 (SK-MEL-2 melanoma) [µM]	TGI (SK-MEL-2 melanoma)	GI50 (KM12 colon) [µM]	TGI (KM12 colon)	GI50 (SR leukemia) [µM]	TGI (SR leukemia) [µM]	GI50 (RXF 393 renal) [µM]	TGI (RXF 393 renal)	GI50 (SN12C renal) [µM]	TGI (SN12C renal)	GI50 (NCI-H522 lung) [µM]	TGI (NCI-H522 lung)	GI50 (HOP-92 NSCLC) [µM]	TGI (HOP-92 NSCLC)
CSc1ccc(C(=O)/C=C/c2ccccc2Cl)cc1	16.1	31.6 µM	18.4	41.5 µM	4.56	17 µM	16.2	37.7 µM	16.6	42 µM	2.23	22.4	4.23	16.4 µM	17.3	32.7 µM	10.9	33.1 µM	15.5	32 µM
C/C(=N/N=C(N)N)c1ccc(NC(=O)Nc2ccc(/C(C)=N/N=C(N)N)cc2)cc1	17.9	56.6 µM	6.2	33.8 µM	7.47	23.9 µM	18.4	60.6 µM	9.78	> 77.7 µM	15.2	30.1	20.3	42.4 µM	14.2	45.7 µM	7.14	28.8 µM	14.2	33.8 µM
Cc1nccc2c3ccc(OCc4cn(-c5ccc(Cl)cc5)nn4)cc3n(CC(C)C)c12	4.68	23.2 µM	6.89	19.5 µM	4.99	18.7 µM	5.59	22.5 µM	2.69	16.8 µM	1.03	5.53	2.85	11.8 µM	3.69	> 33.3 µM	4.17	15.5 µM	1.19	13.6 µM
O=C1C=CC2(C=C1)C[C@H](NC(=O)OCc1ccccc1)C(=O)O2	–	38.2 µM	–	32.4 µM	–	38.1 µM	–	40 µM	–	35.7 µM	–	4.33	–	24.9 µM	–	32.7 µM	–	8.53 µM	–	29.9 µM
Nc1ncnc2c1ccn2[C@@H]1O[C@H]([C@H](O)c2ccc(Cl)c(F)c2)[C@@H](O)[C@H]1O	> 100	> 100 µM	> 100	> 100 µM	48.6	> 100 µM	> 100	> 100 µM	> 100	> 100 µM	> 100	> 100	66.5	> 100 µM	> 100	> 100 µM	> 100	> 100 µM	> 100	> 100 µM
C[CH2][Sn]([CH2]C)([O]C(=O)c1ccc(OC)c(OC)c1OC)[O]C(=O)c1ccc(OC)c(OC)c1OC	> 85.4	> 100 µM	52.6	> 68.2 µM	> 100	> 100 µM	28.7	81.7 µM	> 100	> 100 µM	48	> 100	14.4	30.6 µM	99.8	> 100 µM	2.42	8.54 µM	21.8	49.6 µM
COCc1c(-c2ccc(NC(=O)Nc3cc(C(F)(F)F)ccc3F)c(F)c2)c2c(N)ncnn2c1CN1CCOCC1	3.32	> 10 µM	1.29	7.53 µM	0.438	7.06 µM	1.07	2.58 µM	0.041	5.43 µM	0.398	3.9	0.236	1.43 µM	1.39	> 10 µM	1.76	4.05 µM	0.382	5.97 µM
CCCCCC[C@H](C)NC(=O)c1ccc(Nc2nc3ccccc3c3occc23)cc1	5.35	> 100 µM	5.26	33.5 µM	2.46	5.77 µM	2.64	6.83 µM	4.27	20.5 µM	6.65	55.5	3.88	13.7 µM	24.5	97.3 µM	2.5	5.74 µM	3	50.4 µM
N#CC1C(=O)NC(c2ccccc2[N+](=O)[O-])c2sc3c(F)cccc3c21 (centres undefined)	0.583	4.45 µM	11.5	60.6 µM	0.0549	5.11 µM	9.03	49.8 µM	20	51.4 µM	7.86	> 65.4	13.4	56.9 µM	16.4	> 96.3 µM	14.1	48 µM	11.3	47.3 µM
CCN(Cc1ccc(F)cc1)c1ccc(CO)c(OC)c1	2.64	12.2 µM	2.14	16.8 µM	6.62	27.8 µM	11.9	27.7 µM	36.5	> 100 µM	19.5	55.7	9.44	23.6 µM	21.9	> 100 µM	6.61	20 µM	7.29	37.2 µM
Cc1ccc(OCC2OC(n3cnc4c(Br)nc(Br)nc43)CC2Oc2ccc(C)cc2)cc1 (centres undefined)	16.1	34.2 µM and 42.2 µM	14.4	28.4 µM and > 54.3 µM	2.71	8.86 µM and 9.89 µM	14.1	28.3 µM and 8.15 µM	2.46	8.76 µM and 9.56 µM	–	4.67	13.3	28.2 µM and 22.4 µM	9.93	22.9 µM and 14.2 µM	1.65	2.8 µM and 3.27 µM	1.16	2.55 µM and 5.36 µM
CC1C2CC=CC(=O)[C@@]2(C)CCC12OCCO2 (some centres undefined)	–	> 100 µM	–	> 100 µM	–	> 100 µM	–	> 100 µM	–	> 100 µM	–	> 100	–	> 100 µM	–	> 100 µM	–	> 100 µM	–	> 100 µM
